# Source: article PMC8026324, “In Vitro Antiplasmodial, Heme Polymerization, and Cytotoxicity of Hydroxyxanthone Derivatives” (Journal of Tropical Medicine, 2021)
# How the values were obtained:
# [1] = test system: Plasmodium falciparum 3D-7 (chloroquine-sensitive strain); assay: In vitro antiplasmodial activity assay, microscopic method, strain 3D-7; format: cell-based; conditions: for IC50: 72 hours incubation, microscopic method, read-out: IC50 on P. falciparum 3D-7; for antiplasmodial activity category on P. falciparum 3D-7: category by IC50
# Experimental: (§1) The test of antiplasmodial activity began with the culture of P. falciparum 3D-7 and FCR-3 using the modified Trager and Jensen method. The plasmodium was cultured in human O red blood cells diluted to 3% haematocrit in RPMI 1640 medium complemented with 10% human O serum. The medium was made by adding 10.43 g of powder RPMI 1640, 6 g HEPES, 2 g NaHCO3, 25 mg gentamycin, and sterile distilled water up to 1 L. The medium pH was adjusted so that it reached ±7.2. It was sterilized using a 0.22 μm filter and stored at 4°C. The complete plasmodium culture medium was made by adding human serum with a concentration of 10% in the medium. The plasmodium culture was incubated in candle jar in an incubator with a temperature of 37°C and was observed every 24 hours.
# (§2) The plasmodium was synchronized to obtain the ring stage by adding 5% of D-sorbitol. The plasmodium was transferred from culture flask to a conical tube, and then it was centrifuged with a speed of 1000 rpm for 10 minutes. After the supernatant was disposed, the sterile 5% sorbitol was added and incubated for 10 minutes at a temperature of 37°C. The plasmodium suspension was centrifuged again; the supernatant was disposed and the plasmodium was washed by adding culture medium. Then, the plasmodium suspension was centrifuged again, and the supernatant was discarded, resulting in a plasmodium in ring stage only. The parasitemia was calculated from a thin blood preparation. The test used 1% parasitemia at 2% haematocrit in RPMI medium which complemented with 10% human O serum.
# (§3) Each testing compound was dissolved in RPMI medium. The testing compound in various concentrations with volume of 100 μL was incorporated into the 96-well microplate, and then 100 μL of Plasmodium suspension was added. Each series of concentrations was replicated three times. The microplate was incubated at a temperature of 37°C for 72 hours. At the end of the incubation, a thin blood smear was made using 10% Giemsa stain and observed under a light microscope at 1000x magnification. The percentage of parasitemia (counting a minimum of 1,000 erythrocytes) was calculated from the preparation of thin blood and then used to calculate the percentage of plasmodium growth inhibition. […] Antiplasmodial activity is expressed as IC50, which is the concentration of a compound that is required for 50% inhibition of plasmodium growth. The IC50 value was calculated by probit analysis using SPSS software (IBM Corp., Chicago). The lower the IC50 value obtained, the greater the antiplasmodial activity.
# [2] = test system: Plasmodium falciparum FCR-3 (chloroquine-resistant strain); assay: In vitro antiplasmodial activity assay, microscopic method, strain FCR-3; format: cell-based; conditions: for IC50: 72 hours incubation, microscopic method, read-out: IC50 on P. falciparum FCR-3; for antiplasmodial activity category on P. falciparum FCR-3: category by IC50
# Experimental: as §1, §2, §3
# Vero cells = assay: In vitro cytotoxicity test, MTT assay on Vero cell line; format: cell-based; conditions: for IC50: MTT assay; for Selectivity index 3D-7: ratio IC50 on Vero cell/IC50 on P. falciparum 3D-7; for Selectivity index FCR-3: ratio IC50 on Vero cell/IC50 on P. falciparum FCR-3
# Experimental: The in vitro cytotoxicity test was conducted using the 3-(4,5-dimethylthiazol-2-yl)2,5-diphenyltetrazolium bromide (MTT) assay method on Vero cell line culture using the Anderson et al.'s modified method.
# The cell was removed from the cryo medium. Then, the cell was thawed at 37°C. The liquid cell was subsequently transferred to the tube and a culture medium was added to a volume of 10 mL. Then, the suspension was centrifuged for 15 minutes so that it would form cell pellets. The supernatant was removed and 1 mL of culture medium was added to the cell pellets. Finally, the suspension was transferred to the Petri dish and incubated in the incubator with 5% of CO2 at 37°C.
# The medium of Vero cell culture was removed, and then the cell was washed using a PBS solution with a volume of PBS ± 1/2 of the initial medium volume. This step was done twice and 1 mL of trypsin 0.25% was added. Subsequently, the cell was incubated in the CO2 incubator at 37°C for 3 minutes. Then, the cell was resuspended using 2 mL of culture medium and PBS solution was added up to 10 mL. The suspension was centrifuged for 15 minutes so that it formed pellets. Pellets were added with 1 mL of culture medium and resuspended. Take 10 μL of the cell suspension and density of cells was calculated.
# Then, the cell was added with culture medium to 10 mL. A total of 100 μL of such suspensions was transferred into each well of the 96-well microplate, but three of the wells were emptied as medium controls. Subsequently, the microplate was incubated in a 5% CO2 incubator at 37°C.
# Each hydroxyxanthone derivative compound was dissolved in DMSO, and a variety of concentrations were prepared in the medium. Each concentration of the testing compound was added into the 96-well microplate triplicately. Cell control and medium control were not given a testing compound solution. The medium control remained blank, while the cell control contained culture medium only. […] Then, the cell was incubated in a 5% CO2 incubator at 37°C for 24 hours.
# After the cell was incubated for 24 hours, the medium was discarded and washed with PBS. Then, each well was added with 100 μL of 5 mg/mL of MTT solution. The 96-well microplate was incubated again in the incubator of CO2 at 37°C for 4 hours. Then, 100 μL of 10% of SDS in 0.01 MHCl was added. The cells were placed in a dark room at room temperature for 24 hours.
# The absorbance was measured using the enzyme-linked immunosorbent assay (ELISA) reader at 595 nm wavelength. The cytotoxicity test on the Vero cells was done by calculating the percentage of Vero cell inhibition of the absorption value of the test compound, cell control, and medium control. The cytotoxic effect was expressed as IC50. The IC50 value was obtained from the probit analysis by using SPSS software (IBM Corp., Chicago). The degree of selectivity was expressed as a selectivity index. The selectivity index was obtained from the ratio between the IC50 cytotoxic effect on Vero cells and IC50 antiplasmodial activity on Plasmodium. A compound is said to be safe if the value of the selectivity index is >10 [20].
# MCF-7 = test system: MCF-7; parameters: method as in earlier work; conditions: cited from earlier work
# WIDR = test system: WIDR; parameters: method as in earlier work; conditions: cited from earlier work
# Hela = test system: Hela; parameters: method as in earlier work; conditions: cited from earlier work
# [3] = Chlorocebus sabaeus, Vero, 24 h, 24 hours incubation
compound,measurement,setting,value
"O=c1c2ccc(O)cc2oc2cccc(O)c12 [HX2, 1,6-dihydroxyxanthone]",inhibition at 54.78 µM,"[1]; Plasmodium falciparum, 54.78 μM, read-out: Growth inhibition of P. falciparum Strain 3D-7",49.2 ± 1.61%
same,inhibition at 109.55 µM,"[1]; Plasmodium falciparum, 109.55 μM, read-out: Growth inhibition of P. falciparum Strain 3D-7",54.8 ± 2.43%
same,inhibition at 219.11 µM,"[1]; Plasmodium falciparum, 219.11 μM, read-out: Growth inhibition of P. falciparum Strain 3D-7",67.16 ± 0.601%
same,inhibition at 438.21 µM,"[1]; Plasmodium falciparum, 438.21 μM, read-out: Growth inhibition of P. falciparum Strain 3D-7",73.62 ± 0.713%
same,inhibition at 876.42 µM,"[1]; Plasmodium falciparum, 876.42 μM, read-out: Growth inhibition of P. falciparum Strain 3D-7",90.56 ± 0.665%
same,IC50,[1]; Plasmodium falciparum,71.78 ± 0.31 µM
same,antiplasmodial activity category on P. falciparum 3D-7,[1],moderate (moderate (IC50 20–100 μM))
same,inhibition at 54.78 µM,"[2]; Plasmodium falciparum, FCR3, 54.78 μM, read-out: Growth inhibition of P. falciparum Strain FCR-3",47.2 ± 0.687%
same,inhibition at 109.55 µM,"[2]; Plasmodium falciparum, FCR3, 109.55 μM, read-out: Growth inhibition of P. falciparum Strain FCR-3",50.2 ± 2.63%
same,inhibition at 219.11 µM,"[2]; Plasmodium falciparum, FCR3, 219.11 μM, read-out: Growth inhibition of P. falciparum Strain FCR-3",67.1 ± 2.76%
same,inhibition at 438.21 µM,"[2]; Plasmodium falciparum, FCR3, 438.21 μM, read-out: Growth inhibition of P. falciparum Strain FCR-3",74.2 ± 1.32%
same,inhibition at 876.42 µM,"[2]; Plasmodium falciparum, FCR3, 876.42 μM, read-out: Growth inhibition of P. falciparum Strain FCR-3",87.6 ± 2.24%
same,IC50,"[2]; Plasmodium falciparum, FCR3",81.8 ± 5.78 µM
same,antiplasmodial activity category on P. falciparum FCR-3,[2],moderate (moderate (IC50 20–100 μM))
same,IC50,Vero cells; 24 hours incubation,308 µM
same,IC50,Vero cells; [3],390 µM
same,inhibition at 54.13 µM,"Vero cells; Chlorocebus sabaeus, Vero, 24 h, 54.13 μM, read-out: Vero cell growth inhibition after 24 hours incubation",15.6%
same,inhibition at 108.26 µM,"Vero cells; Chlorocebus sabaeus, Vero, 24 h, 108.26 μM, read-out: Vero cell growth inhibition after 24 hours incubation",31.8%
same,inhibition at 216.86 µM,"Vero cells; Chlorocebus sabaeus, Vero, 24 h, 216.86 μM, read-out: Vero cell growth inhibition after 24 hours incubation",38.9%
same,inhibition at 433.73 µM,"Vero cells; Chlorocebus sabaeus, Vero, 24 h, 433.73 μM, read-out: Vero cell growth inhibition after 24 hours incubation",59.8%
same,inhibition at 867.45 µM,"Vero cells; Chlorocebus sabaeus, Vero, 24 h, 867.45 μM, read-out: Vero cell growth inhibition after 24 hours incubation",67%
same,inhibition at 1734.91 µM,"Vero cells; Chlorocebus sabaeus, Vero, 24 h, 1734.91 μM, read-out: Vero cell growth inhibition after 24 hours incubation",86.1%
same,IC50,"Vero cells; Chlorocebus sabaeus, Vero",88.9 µg/mL
same,Selectivity index 3D-7,Vero cells,4.30
same,Selectivity index FCR-3,Vero cells,3.77
same,cytotoxicity on MCF-7 (in words),MCF-7,weak
same,cytotoxicity on WIDR (in words),WIDR,weak
same,cytotoxicity on Hela (in words),Hela,weak
"O=c1c2ccc(O)c(O)c2oc2cccc(O)c12 [HX3, 1,5,6-trihydroxyxanthone]",inhibition at 25.59 µM,"[1]; Plasmodium falciparum, 25.59 μM, read-out: Growth inhibition of P. falciparum Strain 3D-7",47.3 ± 0.611%
same,inhibition at 51.19 µM,"[1]; Plasmodium falciparum, 51.19 μM, read-out: Growth inhibition of P. falciparum Strain 3D-7",63.4 ± 0.421%
same,inhibition at 102.38 µM,"[1]; Plasmodium falciparum, 102.38 μM, read-out: Growth inhibition of P. falciparum Strain 3D-7",68.89 ± 0.151%
same,inhibition at 204.75 µM,"[1]; Plasmodium falciparum, 204.75 μM, read-out: Growth inhibition of P. falciparum Strain 3D-7",80.92 ± 0.679%
same,inhibition at 409.5 µM,"[1]; Plasmodium falciparum, 409.5 μM, read-out: Growth inhibition of P. falciparum Strain 3D-7",87.4 ± 1.15%
same,IC50,[1]; Plasmodium falciparum,27.64 ± 0.19 µM
same,antiplasmodial activity category on P. falciparum 3D-7,[1],moderate (moderate (IC50 20–100 μM))
same,inhibition at 25.59 µM,"[2]; Plasmodium falciparum, FCR3, 25.59 μM, read-out: Growth inhibition of P. falciparum Strain FCR-3",38.3 ± 1.19%
same,inhibition at 51.19 µM,"[2]; Plasmodium falciparum, FCR3, 51.19 μM, read-out: Growth inhibition of P. falciparum Strain FCR-3",43.13 ± 0.126%
same,inhibition at 102.38 µM,"[2]; Plasmodium falciparum, FCR3, 102.38 μM, read-out: Growth inhibition of P. falciparum Strain FCR-3",51.92 ± 0.466%
same,inhibition at 204.75 µM,"[2]; Plasmodium falciparum, FCR3, 204.75 μM, read-out: Growth inhibition of P. falciparum Strain FCR-3",71.9 ± 7.84%
same,inhibition at 409.5 µM,"[2]; Plasmodium falciparum, FCR3, 409.5 μM, read-out: Growth inhibition of P. falciparum Strain FCR-3",83 ± 1.4%
same,IC50,"[2]; Plasmodium falciparum, FCR3",64.1 ± 5.08 µM
same,antiplasmodial activity category on P. falciparum FCR-3,[2],moderate (moderate (IC50 20–100 μM))
same,IC50,Vero cells; 24 hours incubation,224 µM
same,IC50,Vero cells; [3],230 µM
same,inhibition at 63.88 µM,"Vero cells; Chlorocebus sabaeus, Vero, 24 h, 63.88 μM, read-out: Vero cell growth inhibition after 24 hours incubation",20.7%
same,inhibition at 127.76 µM,"Vero cells; Chlorocebus sabaeus, Vero, 24 h, 127.76 μM, read-out: Vero cell growth inhibition after 24 hours incubation",39.6%
same,inhibition at 255.94 µM,"Vero cells; Chlorocebus sabaeus, Vero, 24 h, 255.94 μM, read-out: Vero cell growth inhibition after 24 hours incubation",55.7%
same,inhibition at 511.88 µM,"Vero cells; Chlorocebus sabaeus, Vero, 24 h, 511.88 μM, read-out: Vero cell growth inhibition after 24 hours incubation",68%
same,inhibition at 1023.75 µM,"Vero cells; Chlorocebus sabaeus, Vero, 24 h, 1023.75 μM, read-out: Vero cell growth inhibition after 24 hours incubation",79.9%
same,inhibition at 2047.5 µM,"Vero cells; Chlorocebus sabaeus, Vero, 24 h, 2047.50 μM, read-out: Vero cell growth inhibition after 24 hours incubation",88.9%
same,IC50,"Vero cells; Chlorocebus sabaeus, Vero",56.2 µg/mL
same,Selectivity index 3D-7,Vero cells,8.12
same,Selectivity index FCR-3,Vero cells,3.50
same,cytotoxicity on MCF-7 (in words),MCF-7,weak
same,cytotoxicity on WIDR (in words),WIDR,weak
same,cytotoxicity on Hela (in words),Hela,weak
